Read-outs that look alike come from different tables or passages of the source.

In this assay the target is T1, human TLR7 (Homo sapiens, UniProt Q9NYK1).
T1 construct: expressed in transfected cells; host or cells: HEK293 (HEK-Blue-7)
T1 sequence (Q9NYK1 27-1049): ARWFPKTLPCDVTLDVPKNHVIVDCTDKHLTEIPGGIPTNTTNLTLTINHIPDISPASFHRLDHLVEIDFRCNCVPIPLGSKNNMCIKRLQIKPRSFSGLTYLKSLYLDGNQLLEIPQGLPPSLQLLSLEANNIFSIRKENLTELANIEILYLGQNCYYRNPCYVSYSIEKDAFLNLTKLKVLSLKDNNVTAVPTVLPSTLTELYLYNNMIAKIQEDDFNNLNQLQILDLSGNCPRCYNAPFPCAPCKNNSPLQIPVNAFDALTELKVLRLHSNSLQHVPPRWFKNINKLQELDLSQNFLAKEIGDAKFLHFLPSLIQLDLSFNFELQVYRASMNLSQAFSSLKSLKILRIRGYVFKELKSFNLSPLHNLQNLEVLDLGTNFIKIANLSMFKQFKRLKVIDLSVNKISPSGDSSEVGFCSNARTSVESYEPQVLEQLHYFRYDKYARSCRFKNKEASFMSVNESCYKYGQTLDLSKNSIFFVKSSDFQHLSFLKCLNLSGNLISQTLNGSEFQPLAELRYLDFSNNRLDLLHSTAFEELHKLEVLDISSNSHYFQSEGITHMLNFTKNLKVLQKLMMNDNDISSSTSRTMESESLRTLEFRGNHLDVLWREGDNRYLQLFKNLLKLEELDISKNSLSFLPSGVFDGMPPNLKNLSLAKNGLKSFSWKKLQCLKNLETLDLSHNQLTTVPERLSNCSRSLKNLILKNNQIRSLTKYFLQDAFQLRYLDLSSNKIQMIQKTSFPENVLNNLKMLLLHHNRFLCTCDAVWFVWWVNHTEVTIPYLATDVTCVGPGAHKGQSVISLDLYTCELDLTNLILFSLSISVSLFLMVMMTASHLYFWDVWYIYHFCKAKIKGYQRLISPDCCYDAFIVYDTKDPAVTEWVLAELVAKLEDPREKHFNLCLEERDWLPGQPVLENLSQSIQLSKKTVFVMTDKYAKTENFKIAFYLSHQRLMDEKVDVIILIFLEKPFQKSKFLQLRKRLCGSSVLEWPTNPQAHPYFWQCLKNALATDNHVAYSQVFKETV
Briefly: Human TLR7 reporter gene assay (NF-κB induction), HEK-Blue-7 cells. Format: cell-based.

Where [1] appears, read: human TLR7-specific reporter gene assay, Inactive = no activity up to 500 μg/mL.
[2] abbreviates: human TLR7-specific reporter gene assay, Inactive = no activity up to 500 μg/mL, read-out: hTLR7-agonistic Activity (EC50).
[3] abbreviates: primary screen, read-out: TLR7-specific agonistic activity EC50.

From the text: Human TLR-7/-8 Reporter Gene Assays (NF-κB Induction).
The induction of NF-κB was quantified using HEK-Blue-7 (hTLR7-specific) and HEK-Blue-8 (hTLR8-specific) cells. HEK293 cells stably co-transfected with human TLR7 or human TLR8, MD2, and secreted alkaline phosphatase (sAP), were maintained in HEK-Blue™ Selection medium containing zeocin and normocin. Stable expression of secreted alkaline phosphatase (sAP) under control of NF-κB/AP-1 promoters is inducible by appropriate TLR agonists, and extracellular sAP in the supernatant is proportional to NF-κB induction.
HEK293 cells stably co-transfected with the appropriate hTLR (or NOD) and secreted alkaline phosphatase (sAP) were maintained in HEK-Blue™ Selection medium. Stable expression of secreted alkaline phosphatase (sAP) under control of NF-κB/AP-1 promoters is inducible by appropriate TLR/NOD agonists, and extracellular sAP in the supernatant is proportional to NF-κB induction.

`CCCCc1nc2c(N)nc(-c3ccoc3)cc2n1Cc1ccccc1` [Compound 23e, 1-Benzyl-2-butyl-6-(furan-3-yl)-1H-imidazo[4,5-c]pyridin-4-amine]: the “hTLR7-agonistic Activity (EC50)” value under setting [1] is on record as “Inactive”. By EC50 is commonly meant the concentration giving half of the maximal effect. For the compound `CCCCc1nc2c(N)nc(NCc3ccncc3)cc2n1Cc1ccccc1` [Compound 19l, 1-Benzyl-2-butyl-N^6-(pyridin-4-ylmethyl)-1H-imidazo[4,5-c]pyridine-4,6-diamine], under setting [2], the EC50 came to 250 nM.

As to `CCCCc1nc2c(N)nc(NCc3cccc(CNc4cc5c(nc(CCCC)n5Cc5ccccc5)c(N)n4)c3)cc2n1Cc1ccccc1` [Compound 19s, N^6,N^6′-(1,3-phenylenebis(methylene))bis(1-benzyl-2-butyl-1H-imidazo[4,5-c]pyridine-4,6-diamine)], the “hTLR7-agonistic Activity (EC50)” value under setting [1] is “Inactive”. With `CCCCc1cc2c(nc(CCCC)n2Cc2ccccc2)c(N)n1` [Compound 23a, 1-Benzyl-2,6-dibutyl-1H-imidazo[4,5-c]pyridin-4-amine], the EC50 under setting [2] is 280 nM.

For `CCCCc1nc2c(N)nc(Cc3ccc(C)cc3)cc2n1Cc1ccccc1` [Compound 23h, 1-Benzyl-2-butyl-6-(4-methylbenzyl)-1H-imidazo[4,5-c]pyridin-4-amine], the EC50 under setting [2] was determined as 1800 nM.

On to `CCCCc1nc2c(N)nc(NCc3ccc(Cl)cc3)cc2n1Cc1ccccc1` [Compound 19j, 1-Benzyl-2-butyl-N^6-(4-chlorobenzyl)-1H-imidazo[4,5-c]pyridine-4,6-diamine], for which the EC50 under setting [2] worked out at 640 nM. As to `CCCCc1nc2c(N)nc(NCc3ccc(CNc4cc5c(nc(CCCC)n5Cc5ccccc5)c(N)n4)cc3)cc2n1Cc1ccccc1` [Compound 19r, N^6,N^6′-(1,4-phenylenebis(methylene))bis(1-benzyl-2-butyl-1H-imidazo[4,5-c]pyridine-4,6-diamine)], the EC50 under setting [2] was determined as 1080 nM. For `CCCCc1nc2c(N)nc(NCc3ccc(C(F)(F)F)cc3)cc2n1Cc1ccccc1` [Compound 19i, 1-Benzyl-2-butyl-N^6-(4-(trifluoromethyl)benzyl)-1H-imidazo[4,5-c]pyridine-4,6-diamine], under setting [2], the EC50 was 1040 nM. As for `CCCCc1nc2c(N)nc(N)cc2n1Cc1ccccc1` [Compound 19a, 1-Benzyl-2-butyl-1H-imidazo[4,5-c]pyridine-4,6-diamine], under setting [2], the EC50 stood at 1250 nM. On to `CCCCc1nc2c(N)nc(CCc3ccccc3)cc2n1Cc1ccccc1` [Compound 23j, 1-Benzyl-2-butyl-6-phenethyl-1H-imidazo[4,5-c]pyridin-4-amine], for which the half-maximal effective concentration (EC50) under setting [2] came out at 570 nM. Also, under “primary screen”, the “TLR7-specific agonistic activity EC50” value is given as “restored”. For `CCCCc1nc2c(NCc3ccccc3)nccc2n1Cc1ccccc1` [Compound 11b, N,1-Dibenzyl-2-butyl-1H-imidazo[4,5-c]pyridin-4-amine], under setting [1], the “hTLR7-agonistic Activity (EC50)” value is on record as “Inactive”.

Regarding `CCCCc1nc2c(N)nc(NCc3cccc(OC)c3)cc2n1Cc1ccccc1` [Compound 19h, 1-Benzyl-2-butyl-N^6-(3-methoxybenzyl)-1H-imidazo[4,5-c]pyridine-4,6-diamine], the EC50 under setting [2] was determined as 610 nM. On the same count and under the same terms, in the case of `CCCCCCCNc1cc2c(nc(CCCC)n2Cc2ccccc2)c(N)n1` [Compound 19c, 1-Benzyl-2-butyl-N^6-heptyl-1H-imidazo[4,5-c]pyridine-4,6-diamine] it was 760 nM. For the compound `CCCCc1nc2c(NC(C)=O)nccc2n1Cc1ccccc1` [Compound 6a, N-(1-Benzyl-2-butyl-1H-imidazo[4,5-c]pyridin-4-yl)acetamide], the “hTLR7-agonistic Activity (EC50)” value under setting [1] is listed as “Inactive^a”. The “TLR7-specific agonistic activity EC50” value (primary screen) is recorded as “complete abrogation of activity”.

As to `CCCCc1nc2c(N)nc(Cc3ccccc3)cc2n1Cc1ccccc1` [Compound 23g, 1,6-Dibenzyl-2-butyl-1H-imidazo[4,5-c]pyridin-4-amine], the EC50 under setting [2] turned out to be 280 nM. Also, the “TLR7-specific agonistic activity EC50” value (primary screen) is listed as “restored”.

For `CCCCc1nc2c(N)nc(Cc3ccc(OC(F)(F)F)cc3)cc2n1Cc1ccccc1` [Compound 23i, 1-Benzyl-2-butyl-6-(4-(trifluoromethoxy)benzyl)-1H-imidazo[4,5-c]pyridin-4-amine], the “hTLR7-agonistic Activity (EC50)” value under setting [1] is reported as “Inactive”. As for `CCCCc1nc2c(N)nc(Cl)cc2n1Cc1ccccc1` [Compound 17, 1-Benzyl-2-butyl-6-chloro-1H-imidazo[4,5-c]pyridin-4-amine], under setting [1], the “hTLR7-agonistic Activity (EC50)” value is on record as “Inactive”. The “TLR7-specific agonistic activity EC50” value (primary screen) is “inactive”. As for `CCCCc1nc2c(N)nc(-c3cccnc3)cc2n1Cc1ccccc1` [Compound 23d, 1-Benzyl-2-butyl-6-(pyridin-3-yl)-1H-imidazo[4,5-c]pyridin-4-amine], the “hTLR7-agonistic Activity (EC50)” value under setting [1] is “Inactive”. `CCCCc1nc2c(N)nc3ccccc3c2n1Cc1ccccc1` [1-benzyl-2-butyl-1H-imidazo[4,5-c]quinolin-4-amine, reference compound]: the EC50 under setting [3] was determined as 60 nM. Consider `CCCCNc1nccc2c1nc(CCCC)n2Cc1ccccc1` [Compound 11a, 1-Benzyl-N,2-dibutyl-1H-imidazo[4,5-c]pyridin-4-amine], for which the “hTLR7-agonistic Activity (EC50)” value under setting [1] is “Inactive”. For `CCCCNc1cc2c(nc(CCCC)n2Cc2ccccc2)c(N)n1` [Compound 19b, 1-Benzyl-N^6,2-dibutyl-1H-imidazo[4,5-c]pyridine-4,6-diamine], under setting [2], the EC50 was found to be 340 nM. On the same count and under the same terms, in the case of `CCCCc1nc2c(N)nc(Nc3ccccc3)cc2n1Cc1ccccc1` [Compound 19e, 1-Benzyl-2-butyl-N^6-phenyl-1H-imidazo[4,5-c]pyridine-4,6-diamine] it was 1720 nM. As to `CCCCc1nc2c(N)nc(NCc3ccccc3)cc2n1Cc1ccccc1` [Compound 19f, N^6,1-Dibenzyl-2-butyl-1H-imidazo[4,5-c]pyridine-4,6-diamine], the “TLR7-agonistic potency relative to compound 5” value (fold over compound 5) is reported as around 7.6. The EC50 under setting [2] is 210 nM. On to `CCCCc1nc2c(NC(=O)CCC)nccc2n1Cc1ccccc1` [Compound 6b, N-(1-Benzyl-2-butyl-1H-imidazo[4,5-c]pyridin-4-yl) butyramide], for which the “hTLR7-agonistic Activity (EC50)” value under setting [1] is listed as “Inactive”. Moreover, the “TLR7-specific agonistic activity EC50” value (primary screen) is recorded as “complete abrogation of activity”. As for `CCCCc1nc2c(N)nc(NCc3ccc(-c4ccccc4)cc3)cc2n1Cc1ccccc1` [Compound 19o, N^6-([1,1′-Biphenyl]-4-ylmethyl)-1-benzyl-2-butyl-1H-imidazo[4,5-c]pyridine-4,6-diamine], the EC50 under setting [2] was 1090 nM. Further, the “TLR7-specific agonistic activity EC50” value (primary screen) is recorded as “active”. With `CCCCc1nc2c(N)nc(NCc3cccc(CN)c3)cc2n1Cc1ccccc1` [Compound 19q, N^6-(3-(aminomethyl)benzyl)-1-benzyl-2-butyl-1H-imidazo[4,5-c]pyridine-4,6-diamine], the EC50 under setting [3] came to 370 nM. Consider `CCCCc1nc2c(N)nc(-c3ccccc3)cc2n1Cc1ccccc1` [Compound 23b, 1-Benzyl-2-butyl-6-phenyl-1H-imidazo[4,5-c]pyridin-4-amine], for which, under setting [1], the “hTLR7-agonistic Activity (EC50)” value is reported as “Inactive”.

The values above are taken from patent publication US10471139B2, “Toll-like receptor agonists” (The University of Kansas, priority 2013, dated 2019).
